Here are results for eight molecules from paper PMC9354565 (The journal of physical chemistry. B, 2022).

For data set [1], the target named is ST2 (Homo sapiens) (UniProt Q01638). Kind of data set: BLI. The following applies: cited from earlier work.
A short description of data set [2]: pH measurement of probes in the HTRF assay buffer. The class given is physicochemical. As to conditions: for pH value of probe in the buffer: 30 mM probe; for pH value of the buffer with BZA: Figure 6C. On the technique in general: Time-resolved FRET reads energy transfer from a long-lived donor to a nearby acceptor.
Data set [3] in a line: solubility observed in the HTRF screening. The class given is physicochemical. The following applies: at 10 mM in the HTRF assay.
For data set [4] the following is noted: reported data, no reference given; cited from earlier work.
For data set [5], the target named is T1, recombinant human ST2-Fc-Histag (human, UniProt Q01638 19-328).
T1 sequence (looked up): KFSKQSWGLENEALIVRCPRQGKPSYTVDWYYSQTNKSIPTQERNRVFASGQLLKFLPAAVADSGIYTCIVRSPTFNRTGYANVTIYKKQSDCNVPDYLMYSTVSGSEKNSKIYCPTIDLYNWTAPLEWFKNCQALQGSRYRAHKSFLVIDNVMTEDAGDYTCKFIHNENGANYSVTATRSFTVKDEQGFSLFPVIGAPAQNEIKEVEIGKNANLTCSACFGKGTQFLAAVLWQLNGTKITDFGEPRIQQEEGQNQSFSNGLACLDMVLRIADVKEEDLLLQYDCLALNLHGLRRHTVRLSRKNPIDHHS
Kind of data set: AlphaScreen or HTRF. On the technique in general: Bead proximity is the source of the signal in Alpha formats.

The target in data set [6] is T1, recombinant human ST2-Fc-Histag. Kind of data set: AlphaScreen or HTRF. This is another data set of the same source.

Several values for one entry are separate records, joined by “and”; a condition that tells them apart may be missing. Equal values may be shown once. Read-outs that look alike come from different tables or passages of the source.

The Kd is the concentration at which binding is half-saturated. Take IL33 (from UniProt O95760): in data set [1], the Kd was 2.23 nM. Regarding `O=C(O)c1cccnc1` [NA, nicotinic acid], the “pH value of probe in the buffer” value in data set [2] is listed as 5.1. Turning to `O=C(O)c1ccccc1O` [SA, salicylic acid], in data set [2], the “pH value of probe in the buffer” value is given as 4.1. As for `O=C(O)c1ccc2ccccc2c1O` [Compound 1], the solubility result in data set [3] is listed as “poor solubility”.

On to `NC(=O)c1cccnc1` [NAM, nicotinamide], for which the “pH value of probe in the buffer” value in data set [2] worked out at 7.2. As usually defined, the pKa is the negative logarithm of the acid dissociation constant. `NCc1cccnc1` [AMP, 3-(aminomethyl)pyridine]: in data set [4], the pKa is given as 8.34. The “pH value of probe in the buffer” value in data set [2] was 9.4. Take `N=C(N)c1ccccc1` [BZA, benzamidine]: the “pH value of the buffer with BZA” value in data set [2] (0.12 mM BZA) was determined as 7.5; in data set [2] (3.3 mM BZA), 10.1; in data set [2] (30 mM BZA), 10.8. Besides, the “pH value of probe in the buffer” value in data set [2] came to 10.5.

B1: recombinant human IL33, un-biotinylated (ligand)
chain: SITGISPITEYLASLSTYNDQSITFALEDESYEIYVEDLKKDEKKDKVLLSYYESQHPSNESGDGVDGKMLMVTLSPTKDFWLHANNKEHSVELHKCEKPLPDQAFFVLHNMHSNCVSFECKTDPGVFIGVKDNHLALIKVDSSENLCTENILFKLSET
A word on the IC50: it is the midpoint of a concentration-inhibition curve. Turning to B1, in data set [5], the IC50 was found to be 2.25 ± 0.98 nM; the “IC50 of one of two independent measurements” value was 2.94 nM and 1.5 nM. Also, in data set [6], the half-maximal inhibitory concentration (IC50) came to 3.7 ± 0.29 nM; the “IC50 of one of two independent measurements” value is 3.49 nM and 3.9 nM.
